pKi: −log10 of the molar value.
target: T1, full-length ATR (Homo sapiens, UniProt Q13535); assay: ATR Inhibition Assay (radioactive-phosphate incorporation); format: biochemical; conditions: Ki(app); 5 nM full-length ATR, 10 μM ATP, 800 μM target peptide, 25° C.
T1 construct: in the presence of 5 nM full-length ATR
Outline: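 After a 10-min pre-incubation of compound with 5 nM enzyme at 25 °C, ATP was added to start the reaction (final 10 μM [γ-33P]ATP, 800 μM peptide; Tris/HCl pH 7.5, MgCl2, DTT), which ran 24 h. Incorporated 33P was captured on phosphocellulose filters, and Ki(app) was fitted by non-linear regression.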

T1 sequence (Q13535 whole entry): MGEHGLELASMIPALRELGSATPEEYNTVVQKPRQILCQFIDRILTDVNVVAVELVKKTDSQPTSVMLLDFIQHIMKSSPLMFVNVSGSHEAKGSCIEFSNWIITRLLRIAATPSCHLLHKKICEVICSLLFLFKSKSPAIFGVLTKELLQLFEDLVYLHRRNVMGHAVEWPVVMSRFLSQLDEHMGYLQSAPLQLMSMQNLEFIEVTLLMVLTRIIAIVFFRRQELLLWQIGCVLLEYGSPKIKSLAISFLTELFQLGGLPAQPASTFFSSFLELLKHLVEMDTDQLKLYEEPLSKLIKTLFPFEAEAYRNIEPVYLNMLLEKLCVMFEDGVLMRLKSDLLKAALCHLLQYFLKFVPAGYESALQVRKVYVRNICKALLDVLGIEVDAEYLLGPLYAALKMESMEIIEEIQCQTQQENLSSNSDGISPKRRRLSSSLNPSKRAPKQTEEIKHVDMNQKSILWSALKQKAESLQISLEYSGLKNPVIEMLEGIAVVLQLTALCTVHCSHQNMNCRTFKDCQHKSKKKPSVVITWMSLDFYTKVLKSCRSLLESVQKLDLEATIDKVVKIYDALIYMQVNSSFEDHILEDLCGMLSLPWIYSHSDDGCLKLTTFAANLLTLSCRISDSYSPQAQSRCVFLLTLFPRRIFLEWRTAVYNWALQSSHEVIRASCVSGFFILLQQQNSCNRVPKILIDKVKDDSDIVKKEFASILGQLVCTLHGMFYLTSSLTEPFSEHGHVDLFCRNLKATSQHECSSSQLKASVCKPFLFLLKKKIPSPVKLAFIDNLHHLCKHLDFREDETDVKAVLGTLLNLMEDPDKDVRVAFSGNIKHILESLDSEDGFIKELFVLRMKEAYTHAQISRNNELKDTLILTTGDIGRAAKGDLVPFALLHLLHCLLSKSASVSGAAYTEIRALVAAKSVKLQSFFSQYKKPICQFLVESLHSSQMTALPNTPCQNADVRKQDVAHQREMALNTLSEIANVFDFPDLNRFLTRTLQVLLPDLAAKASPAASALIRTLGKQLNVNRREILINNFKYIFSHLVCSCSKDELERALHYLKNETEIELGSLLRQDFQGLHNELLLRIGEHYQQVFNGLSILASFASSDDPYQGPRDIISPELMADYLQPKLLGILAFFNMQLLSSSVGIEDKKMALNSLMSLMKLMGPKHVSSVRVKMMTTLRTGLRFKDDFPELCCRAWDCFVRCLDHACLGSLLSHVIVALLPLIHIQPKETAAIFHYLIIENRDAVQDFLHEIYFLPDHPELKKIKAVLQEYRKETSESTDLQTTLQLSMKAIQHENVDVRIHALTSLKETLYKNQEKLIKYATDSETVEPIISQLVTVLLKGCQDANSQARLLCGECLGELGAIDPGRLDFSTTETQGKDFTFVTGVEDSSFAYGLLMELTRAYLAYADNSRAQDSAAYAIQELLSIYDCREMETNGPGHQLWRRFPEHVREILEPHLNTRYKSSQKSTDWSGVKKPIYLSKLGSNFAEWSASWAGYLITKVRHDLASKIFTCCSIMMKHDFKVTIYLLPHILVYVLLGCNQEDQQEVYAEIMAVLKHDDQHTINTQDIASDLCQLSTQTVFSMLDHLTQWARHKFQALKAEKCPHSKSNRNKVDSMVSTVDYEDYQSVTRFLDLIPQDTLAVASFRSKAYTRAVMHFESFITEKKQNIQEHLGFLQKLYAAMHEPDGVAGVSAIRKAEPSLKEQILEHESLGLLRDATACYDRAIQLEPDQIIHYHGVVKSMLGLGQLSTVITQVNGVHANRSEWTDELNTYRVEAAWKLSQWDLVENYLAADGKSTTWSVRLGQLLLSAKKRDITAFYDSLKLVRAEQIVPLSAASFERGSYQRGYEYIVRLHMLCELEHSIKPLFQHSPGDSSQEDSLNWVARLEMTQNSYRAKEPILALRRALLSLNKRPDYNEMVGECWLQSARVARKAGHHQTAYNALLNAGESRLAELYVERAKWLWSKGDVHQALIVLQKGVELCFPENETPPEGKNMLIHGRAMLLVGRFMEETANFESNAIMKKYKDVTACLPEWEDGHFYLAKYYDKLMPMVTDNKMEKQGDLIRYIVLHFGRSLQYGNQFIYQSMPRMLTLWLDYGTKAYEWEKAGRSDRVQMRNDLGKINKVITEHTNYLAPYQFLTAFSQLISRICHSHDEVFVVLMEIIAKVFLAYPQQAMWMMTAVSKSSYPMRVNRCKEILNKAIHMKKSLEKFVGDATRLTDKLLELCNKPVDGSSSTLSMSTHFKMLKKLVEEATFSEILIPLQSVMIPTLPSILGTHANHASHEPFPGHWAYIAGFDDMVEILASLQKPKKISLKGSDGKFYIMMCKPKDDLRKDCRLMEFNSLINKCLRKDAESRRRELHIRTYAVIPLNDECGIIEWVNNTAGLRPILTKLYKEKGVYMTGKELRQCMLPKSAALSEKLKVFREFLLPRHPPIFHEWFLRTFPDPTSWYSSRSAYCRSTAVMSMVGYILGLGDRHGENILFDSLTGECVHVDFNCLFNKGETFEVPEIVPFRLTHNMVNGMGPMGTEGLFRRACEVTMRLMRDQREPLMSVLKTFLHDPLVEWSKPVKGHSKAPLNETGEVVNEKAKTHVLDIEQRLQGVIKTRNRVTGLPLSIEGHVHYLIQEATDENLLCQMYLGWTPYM

Q: With `CC(=O)N1CCN(c2cnc(N)c(-c3nnc(-c4ccccc4)o3)n2)CC1` [Compound I-180, 1-(4-(5-amino-6-(5-phenyl-1,3,4-oxadiazol-2-yl)pyrazin-2-yl)piperazin-1-yl)ethanone] as the compound, how does the pKi read?
A: The pKi was 6.00 to 7.00.

Q: `CCCS(=O)(=O)N1CCN(c2cnc(N)c(C(=O)Nc3ccccn3)n2)CC1` [Compound I-240, 3-amino-6-(4-(propylsulfonyl)piperazin-1-yl)-N-(pyridin-2-yl)pyrazine-2-carboxamide] was tested. Which pKi did it give?
A: Its pKi is 6.00 to 7.00.

Q: `Nc1ncc(N2CCN(C(=O)N3CCCC3)CC2)nc1C(=O)Nc1ccccn1` [Compound I-239, 3-amino-N-(pyridin-2-yl)-6-(4-(pyrrolidine-1-carbonyl)piperazin-1-yl)pyrazine-2-carboxamide] was tested. Which pKi did it give?
A: The pKi was 5.00 to 6.00.

Q: `CCS(=O)(=O)N1CCN(c2cnc(N)c(-c3nnc(-c4ccccc4)o3)n2)CC1` [Compound I-18, 5-(4-(ethylsulfonyl)piperazin-1-yl)-3-(5-phenyl-1,3,4-oxadiazol-2-yl)pyrazin-2-amine] was tested. Which pKi did it give?
A: Its pKi is over 7.00.

Q: With `CCS(=O)(=O)N1CC=C(c2cnc(N)c(-c3nnc(-c4ccc(CNC)cc4)o3)n2)CC1` [Compound I-339, 5-(1-Ethylsulfonyl-3,6-dihydro-2H-pyridin-4-yl)-3-[5-[4-(methylaminomethyl)phenyl]-1,3,4-oxadiazol-2-yl]pyrazin-2-amine] as the compound, how does the pKi read?
A: Its pKi is 6.00 to 7.00.

Q: How did the pKi turn out when `Cc1ccc2nc(-c3nc(N4CCOCC4)cnc3N)[nH]c2c1` [Compound I-3, 3-(6-methyl-1H-benzo[d]imidazol-2-yl)-5-morpholinopyrazin-2-amine] was run?
A: The pKi was 6.00 to 7.00.

Q: With `CNCc1ccc(-c2nnc(-c3nc(N4CCC5(CCNC5=O)CC4)cnc3N)o2)cc1` [Compound I-360, 8-(5-Amino-6-(5-(4-((methylamino)methyl)phenyl)-1,3,4-oxadiazol-2-yl)pyrazin-2-yl)-2,8-diazaspiro[4.5]decan-1-one] as the compound, how does the pKi read?
A: The pKi was 6.00 to 7.00.

Q: `Nc1ncc(N2CCN(C(=O)Cc3ccccc3)CC2)nc1-c1nnc(-c2ccccc2)o1` [Compound I-197, 1-(4-(5-amino-6-(5-phenyl-1,3,4-oxadiazol-2-yl)pyrazin-2-yl)piperazin-1-yl)-2-phenylethanone] was tested. Which pKi did it give?
A: Its pKi is 6.00 to 7.00.

Q: `CCC(=O)N1CC=C(c2cnc(N)c(-c3nnc(-c4ccccc4)o3)n2)CC1` [Compound I-301, 1-[4-[5-amino-6-(5-phenyl-1,3,4-oxadiazol-2-yl)pyrazin-2-yl]-3,6-dihydro-2H-pyridin-1-yl]propan-1-one] was tested. Which pKi did it give?
A: Its pKi is over 7.00.

Q: `CCNC1CC=C(c2cnc(N)c(-c3nnc(-c4ccccc4)o3)n2)CC1` (stereo not shown) [Compound I-314, 5-(4-(Ethylamino)cyclohex-1-enyl)-3-(5-phenyl-1,3,4-oxadiazol-2-yl)pyrazin-2-amine] was tested. Which pKi did it give?
A: Its pKi is 6.00 to 7.00.

Q: With `Nc1ncc(-n2ccc(=O)cc2)nc1-c1nc2ccccc2[nH]1` [Compound I-311, 1-[5-amino-6-(1H-benzimidazol-2-yl)pyrazin-2-yl]pyridin-4-one] as the compound, how does the pKi read?
A: Its pKi is over 7.00.

Q: `Nc1ncc(C2=CCN(S(=O)(=O)c3cccnc3)CC2)nc1-c1nc2ccccc2[nH]1` [Compound I-241, 3-(1H-benzo[d]imidazol-2-yl)-5-(1-(pyridin-3-ylsulfonyl)-1,2,3,6-tetrahydropyridin-4-yl)pyrazin-2-amine] was tested. Which pKi did it give?
A: The pKi was over 7.00.

Q: How did the pKi turn out when `CCS(=O)(=O)N1CC=C(c2cnc(N)c(-c3nc4ccc(F)c(F)c4[nH]3)n2)CC1` [Compound I-153, 3-(6,7-difluoro-1H-benzo[d]imidazol-2-yl)-5-(1-(ethylsulfonyl)-1,2,3,6-tetrahydropyridin-4-yl)pyrazin-2-amine] was run?
A: Its pKi is over 7.00.

Q: `Nc1ncc(C2=CCN(C(=O)OCc3ccccc3)CC2)nc1-c1nc2ccccc2[nH]1` [Compound I-261, benzyl 4-(5-amino-6-(1H-benzo[d]imidazol-2-yl)pyrazin-2-yl)-5,6-dihydropyridine-1(2H)-carboxylate] was tested. Which pKi did it give?
A: The pKi was 6.00 to 7.00.

Q: `COCC(=O)N1CC=C(c2cnc(N)c(-c3nc4ccccc4[nH]3)n2)CC1` [Compound I-138, 1-(4-(5-amino-6-(1H-benzo[d]imidazol-2-yl)pyrazin-2-yl)-5,6-dihydropyridin-1(2H)-yl)-2-methoxyethanone] was tested. Which pKi did it give?
A: The pKi was over 7.00.

Q: With `Nc1ncc(N2CCN(C(=O)c3c(F)cccc3F)CC2)nc1-c1nnc(-c2ccccc2)o1` [Compound I-203, (4-(5-amino-6-(5-phenyl-1,3,4-oxadiazol-2-yl)pyrazin-2-yl)piperazin-1-yl)(2,6-difluorophenyl)methanone] as the compound, how does the pKi read?
A: Its pKi is 6.00 to 7.00.

Q: `CCOC(=O)N1CC=C(c2cnc(N)c(-c3nc4ccccc4[nH]3)n2)CC1` [Compound I-250, ethyl 4-(5-amino-6-(1H-benzo[d]imidazol-2-yl)pyrazin-2-yl)-5,6-dihydropyridine-1(2H)-carboxylate] was tested. Which pKi did it give?
A: The pKi was 6.00 to 7.00.

Q: How did the pKi turn out when `CCS(=O)(=O)N1CCN(c2cnc(N)c(-c3nnc(-c4sccc4C)o3)n2)CC1` [Compound I-294, 5-(4-ethylsulfonylpiperazin-1-yl)-3-[5-(3-methyl-2-thienyl)-1,3,4-oxadiazol-2-yl]pyrazin-2-amine] was run?
A: The pKi was over 7.00.

Q: How did the pKi turn out when `Cc1ccc2nc(-c3nc(N4CCN(c5ncccc5C(F)(F)F)CC4)cnc3N)[nH]c2c1` [Compound I-52, 3-(6-methyl-1H-benzo[d]imidazol-2-yl)-5-(4-(3-(trifluoromethyl)pyridin-2-yl)piperazin-1-yl)pyrazin-2-amine] was run?
A: Its pKi is 5.00 to 6.00.

Q: With `CN(C)S(=O)(=O)N1CCN(c2cnc(N)c(-c3nnc(-c4ccccc4)o3)n2)CC1` [Compound I-83, 4-(5-amino-6-(5-phenyl-1,3,4-oxadiazol-2-yl)pyrazin-2-yl)-N,N-dimethylpiperazine-1-sulfonamide] as the compound, how does the pKi read?
A: Its pKi is 6.00 to 7.00.

Q: `CCC(=O)N1CCN(c2cnc(N)c(-c3nnc(-c4ccc(CNC)cc4)o3)n2)CC12CC2` [Compound I-363, 1-(7-(5-Amino-6-(5-(4-((methylamino)methyl)phenyl)-1,3,4-oxadiazol-2-yl)pyrazin-2-yl)-4,7-diazaspiro[2.5]octan-4-yl)propan-1-one] was tested. Which pKi did it give?
A: The pKi was 6.00 to 7.00.

Q: `Nc1ncc(-n2ccccc2=O)nc1-c1nc2ccccc2[nH]1` [Compound I-310, 1-(5-amino-6-(1H-benzo[d]imidazol-2-yl)pyrazin-2-yl)pyridin-2(1H)-one] was tested. Which pKi did it give?
A: The pKi was over 7.00.

Q: With `CCS(=O)(=O)N1CCN(c2cnc(N)c(-c3nnc(-c4ccc(CNC)cc4)o3)n2)C[C@@H]1C` [Compound I-345, 5-[(35)-4-Ethylsulfonyl-3-methyl-piperazin-1-yl]-3-[5-[4-(methylaminomethyl)phenyl]-1,3,4-oxadiazol-2-yl]pyrazin-2-amine] as the compound, how does the pKi read?
A: The pKi was over 7.00.

Q: With `Nc1ncc(N2CCNCC2)nc1-c1nnc(-c2ccccc2)o1` [Compound I-37, 3-(5-phenyl-1,3,4-oxadiazol-2-yl)-5-(piperazin-1-yl)pyrazin-2-amine] as the compound, how does the pKi read?
A: The pKi was 5.00 to 6.00.

Q: With `Nc1ncc(N2CCN(C(=O)C3CCCC3)CC2)nc1C(=O)Nc1ccccn1` [Compound I-144, 3-amino-6-(4-(cyclopentanecarbonyl)piperazin-1-yl)-N-(pyridin-2-yl)pyrazine-2-carboxamide] as the compound, how does the pKi read?
A: The pKi was 6.00 to 7.00.

Q: `CCOC(=O)N1CC=C(c2cnc(N)c(-c3nnc(-c4ccccc4)o3)n2)CC1` [Compound I-238, ethyl 4-(5-amino-6-(5-phenyl-1,3,4-oxadiazol-2-yl)pyrazin-2-yl)-5,6-dihydropyridine-1(2H)-carboxylate] was tested. Which pKi did it give?
A: Its pKi is over 7.00.

Q: How did the pKi turn out when `CCS(=O)(=O)N1CC=C(c2cnc(N)c(-c3nc4ccccc4[nH]3)n2)CC1` [Compound I-71, 3-(1H-benzo[d]imidazol-2-yl)-5-(1-(ethylsulfonyl)-1,2,3,6-tetrahydropyridin-4-yl)pyrazin-2-amine] was run?
A: The pKi was over 7.00.

Q: `Nc1ncc(N2CCN(S(=O)(=O)c3ccoc3)CC2)nc1-c1nnc(-c2ccccc2)o1` [Compound I-90, 5-(4-(furan-3-ylsulfonyl)piperazin-1-yl)-3-(5-phenyl-1,3,4-oxadiazol-2-yl)pyrazin-2-amine] was tested. Which pKi did it give?
A: Its pKi is 6.00 to 7.00.

Q: How did the pKi turn out when `Nc1ncc(N2CCN(c3nccs3)CC2)nc1-c1nc2ccccc2[nH]1` [Compound I-277] was run?
A: Its pKi is 6.00 to 7.00.

Q: `CC(C)S(=O)(=O)N1CCN(c2cnc(N)c(-c3nc4ccccc4[nH]3)n2)CC1` [Compound I-97, 3-(1H-benzo[d]imidazol-2-yl)-5-(4-(isopropylsulfonyl)piperazin-1-yl)pyrazin-2-amine] was tested. Which pKi did it give?
A: Its pKi is 6.00 to 7.00.

Q: How did the pKi turn out when `CCS(=O)(=O)N1CCN(c2cnc(N)c(-c3nc4cccnc4[nH]3)n2)CC1` [Compound I-56, 5-(4-(ethylsulfonyl)piperazin-1-yl)-3-(3H-imidazo[4,5-b]pyridin-2-yl)pyrazin-2-amine] was run?
A: Its pKi is 6.00 to 7.00.

Q: With `CCS(=O)(=O)N1CC=C(c2cnc(N)c(-c3nc4cc(C)ccc4[nH]3)n2)CC1` [Compound I-157, 5-(1-(ethylsulfonyl)-1,2,3,6-tetrahydropyridin-4-yl)-3-(5-methyl-1H-benzo[d]imidazol-2-yl)pyrazin-2-amine] as the compound, how does the pKi read?
A: Its pKi is over 7.00.

Q: With `Nc1ncc(C2=CCN(C(=O)C3CCCCC3)CC2)nc1-c1nc2ccccc2[nH]1` [Compound I-259, (4-(5-amino-6-(1H-benzo[d]imidazol-2-yl)pyrazin-2-yl)-5,6-dihydropyridin-1(2H)-yl)(cyclohexyl)methanone] as the compound, how does the pKi read?
A: The pKi was over 7.00.

Q: `CCS(=O)(=O)N1CCN(c2cnc(N)c(-c3nnc(-c4cccc(F)c4)o3)n2)CC1` [Compound I-283, 5-(4-ethylsulfonylpiperazin-1-yl)-3-[5-(3-fluorophenyl)-1,3,4-oxadiazol-2-yl]pyrazin-2-amine] was tested. Which pKi did it give?
A: The pKi was 6.00 to 7.00.

Q: With `Cc1ccc2nc(-c3nc(N4CCN(c5ccccc5F)CC4)cnc3N)[nH]c2c1` [Compound I-45, 5-(4-(2-fluorophenyl)piperazin-1-yl)-3-(6-methyl-1H-benzo[d]imidazol-2-yl)pyrazin-2-amine] as the compound, how does the pKi read?
A: Its pKi is 5.00 to 6.00.

Q: With `Cc1cccc(C)c1C(=O)N1CCN(c2cnc(N)c(-c3nc4ccccc4[nH]3)n2)CC1` [Compound I-275, (4-(5-amino-6-(1H-benzo[d]imidazol-2-yl)pyrazin-2-yl)piperazin-1-yl)(2,6-dimethylphenyl)methanone] as the compound, how does the pKi read?
A: The pKi was 5.00 to 6.00.

Q: `Nc1ncc(C2=CCN(S(=O)(=O)c3cccnc3)CC2)nc1-c1nnc(-c2ccccc2)o1` [Compound I-222, 3-(5-phenyl-1,3,4-oxadiazol-2-yl)-5-(1-(pyridin-3-ylsulfonyl)-1,2,3,6-tetrahydropyridin-4-yl)pyrazin-2-amine] was tested. Which pKi did it give?
A: The pKi was over 7.00.

Reference: patent US8410112B2, “Compounds useful as inhibitors of ATR kinase” (Vertex Pharmaceuticals Incorporated, priority 2008, dated 2013)
